# Source: PubChem BioAssay (NCI)
#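 Growth conditions: 96-well plates. Treatment: test compound, 48 hours, 5 concentrations. Analysis: linear interpolation between bracketing concentrations; unreached endpoints set to highest concentration. Here, GI50 denotes the concentration required for 50% inhibition of growth. TGI denotes the concentration required for complete inhibition of growth.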
# Key:
# Assay in all cases: growth of human tumour cells (NCI), 48 h
# [1] = test system: SNB-75 CNS
# [2] = test system: BT-549 breast
# [3] = test system: DU-145 prostate
# [4] = test system: UACC-62 melanoma
# [5] = test system: HCT-15 colon
# [6] = test system: SF-539 CNS
# [7] = test system: OVCAR-5 ovarian
# [8] = test system: 786-0 renal
# [9] = test system: MOLT-4 leukemia
# [10] = test system: OVCAR-3 ovarian
# [11] = test system: A549 NSCLC
# [12] = test system: IGROV1 ovarian
# [13] = test system: SW-620 colon
# [14] = test system: CAKI-1 renal
# [15] = test system: HOP-92 NSCLC
# [16] = test system: MDA-MB-435
# [17] = test system: SN12C renal
# [18] = test system: NCI-H226 lung
# [19] = test system: UO-31 renal
# [20] = test system: MDA-MB-231 breast
# [21] = test system: NCI-H522 lung
# [22] = test system: SK-OV-3 ovarian
# [23] = test system: RXF 393 renal
# [24] = test system: ACHN renal
# [25] = test system: MCF7 breast
# [26] = test system: NCI-H460 lung
# [27] = test system: A498 renal
# [28] = test system: LOX IMVI melanoma
# [29] = test system: SK-MEL-2 melanoma
# [30] = test system: CCRF-CEM leukemia
# [31] = test system: SF-268 CNS
# [32] = test system: KM12 colon
# [33] = test system: NCI-H23 lung
# [34] = test system: HOP-62 NSCLC
# [35] = test system: T-47D breast
# [36] = test system: OVCAR-4 ovarian
# [37] = test system: K-562 leukemia
# [38] = test system: U251 CNS
# [39] = test system: OVCAR-8 ovarian
# [40] = test system: SF-295 CNS
# [41] = test system: PC-3 prostate
# [42] = test system: NCI/ADR-RES ovarian
# [43] = test system: EKVX NSCLC
# [44] = test system: HCT-116 colon
# [45] = test system: SNB-19 CNS
# [46] = test system: HL-60(TB) leukemia
# [47] = test system: SR leukemia
# [48] = test system: HS 578T breast
# [49] = test system: SK-MEL-5 melanoma
# [50] = test system: SK-MEL-28 melanoma
# [51] = test system: RPMI-8226 leukemia
# [52] = test system: HCC-2998 colon
# [53] = test system: M14 melanoma
# [54] = test system: TK-10 renal
# [55] = test system: COLO 205 colon
# [56] = test system: HT29 colon
# [57] = test system: UACC-257 melanoma
# [58] = test system: MALME-3M melanoma
smiles,measurement,setting,value
Cc1ccc(S(=O)(=O)c2nc(-c3ccc(F)cc3)oc2S(C)(=O)=O)cc1,GI50,[1],> 23.5 µM
same,TGI,[1],> 100 µM
same,GI50,[2],14.1 µM
same,TGI,[2],> 100 µM
same,GI50,[3],> 100 µM
same,TGI,[3],> 100 µM
same,TGI,[4],> 100 µM
same,GI50,[5],3.95 µM
same,TGI,[5],> 100 µM
same,GI50,[6],> 100 µM
same,TGI,[6],> 100 µM
same,GI50,[7],> 100 µM
same,TGI,[7],> 100 µM
same,GI50,[8],> 100 µM
same,TGI,[8],> 100 µM
same,GI50,[9],4.61 µM
same,TGI,[9],> 100 µM
same,GI50,[10],> 100 µM
same,TGI,[10],> 100 µM
same,GI50,[11],> 100 µM
same,TGI,[11],> 100 µM
same,GI50,[12],> 100 µM
same,TGI,[12],> 100 µM
same,GI50,[13],2.4 µM
same,GI50,[14],4.83 µM
same,TGI,[14],> 100 µM
same,GI50,[15],6.69 µM
same,TGI,[15],> 100 µM
same,GI50,[16],13.7 µM
same,TGI,[16],> 100 µM
same,GI50,[17],8.51 µM
same,TGI,[17],> 100 µM
same,GI50,[18],> 20.2 µM
same,TGI,[18],> 100 µM
same,GI50,[19],> 100 µM
same,TGI,[19],> 100 µM
same,GI50,[20],> 100 µM
same,TGI,[20],> 100 µM
same,GI50,[21],2.27 µM
same,GI50,[22],> 93.5 µM
same,TGI,[22],> 100 µM
same,GI50,[23],5.16 µM
same,TGI,[23],> 100 µM
same,GI50,[24],1.74 µM
same,TGI,[24],3.13 µM
same,GI50,[25],3.78 µM
same,TGI,[25],> 100 µM
same,GI50,[26],> 100 µM
same,TGI,[26],> 100 µM
same,GI50,[27],> 100 µM
same,TGI,[27],> 100 µM
same,GI50,[28],2.04 µM
same,GI50,[29],> 21 µM
same,TGI,[29],> 100 µM
same,GI50,[30],2.92 µM
same,TGI,[30],> 100 µM
same,GI50,[31],> 35 µM
same,TGI,[31],> 100 µM
same,GI50,[32],> 100 µM
same,TGI,[32],> 100 µM
same,GI50,[33],3.13 µM
same,TGI,[33],> 100 µM
same,GI50,[34],> 100 µM
same,TGI,[34],> 100 µM
same,GI50,[35],1.73 µM
same,TGI,[35],3.67 µM
same,GI50,[36],> 100 µM
same,TGI,[36],> 100 µM
same,GI50,[37],2.94 µM
same,TGI,[37],> 100 µM
same,GI50,[38],16.9 µM
same,TGI,[38],> 100 µM
same,GI50,[39],6.88 µM
same,TGI,[39],> 100 µM
same,GI50,[40],> 100 µM
same,TGI,[40],> 100 µM
same,GI50,[41],> 21.9 µM
same,TGI,[41],> 100 µM
same,GI50,[42],> 31.8 µM
same,TGI,[42],> 100 µM
same,GI50,[43],> 100 µM
same,TGI,[43],> 100 µM
same,GI50,[44],1.53 µM
same,TGI,[44],2.94 µM
same,GI50,[45],> 77.6 µM
same,TGI,[45],> 100 µM
same,GI50,[46],1.65 µM
same,TGI,[46],5.57 µM
same,GI50,[47],1.06 µM
same,TGI,[48],> 52.9 µM
same,GI50,[49],> 100 µM
same,TGI,[49],> 100 µM
same,GI50,[50],> 100 µM
same,TGI,[50],> 100 µM
same,GI50,[51],> 100 µM
same,TGI,[51],> 100 µM
same,GI50,[52],> 100 µM
same,TGI,[52],> 100 µM
same,GI50,[53],> 100 µM
same,TGI,[53],> 100 µM
CNC(=O)c1c(NC(=O)c2ccccc2C(F)(F)F)sc2c1CCC(=O)C2,GI50,[1],1.54 µM
same,TGI,[1],6.82 µM
same,GI50,[2],2.54 µM
same,TGI,[2],> 100 µM
same,GI50,[3],4.45 µM
same,TGI,[3],> 100 µM
same,GI50,[4],1.45 µM
same,TGI,[4],3.91 µM
same,GI50,[5],0.37 µM
same,TGI,[5],10.5 µM
same,GI50,[6],0.678 µM
same,TGI,[6],2.22 µM
same,GI50,[7],1.48 µM
same,TGI,[7],5.58 µM
same,GI50,[8],3.8 µM
same,TGI,[8],> 100 µM
same,GI50,[9],1.2 µM
same,TGI,[9],> 100 µM
same,GI50,[11],3.28 µM
same,TGI,[11],> 100 µM
same,GI50,[12],1.87 µM
same,TGI,[12],17.8 µM
same,GI50,[13],0.363 µM
same,TGI,[13],12.2 µM
same,GI50,[14],0.464 µM
same,TGI,[14],2.55 µM
same,GI50,[15],1.2 µM
same,TGI,[15],3.39 µM
same,GI50,[16],2.72 µM
same,TGI,[16],11.2 µM
same,GI50,[17],2.9 µM
same,TGI,[17],> 100 µM
same,GI50,[18],2.46 µM
same,TGI,[18],8.01 µM
same,GI50,[54],1.54 µM
same,TGI,[54],> 100 µM
same,GI50,[19],0.574 µM
same,TGI,[19],1.95 µM
same,GI50,[20],2 µM
same,TGI,[20],4.78 µM
same,GI50,[21],0.347 µM
same,TGI,[21],2.33 µM
same,GI50,[55],1.29 µM
same,TGI,[55],3.12 µM
same,GI50,[23],1.12 µM
same,TGI,[23],4.2 µM
same,GI50,[24],0.397 µM
same,TGI,[24],2.03 µM
same,GI50,[25],1.91 µM
same,TGI,[25],11.9 µM
same,GI50,[26],3.27 µM
same,TGI,[26],> 100 µM
same,GI50,[56],1.45 µM
same,TGI,[56],9.66 µM
same,GI50,[27],2.09 µM
same,TGI,[27],6.24 µM
same,GI50,[29],2.77 µM
same,TGI,[29],7.6 µM
same,GI50,[30],0.348 µM
same,TGI,[30],> 100 µM
same,GI50,[31],3.19 µM
same,TGI,[31],> 100 µM
same,GI50,[32],4.29 µM
same,TGI,[32],16.8 µM
same,GI50,[33],1.33 µM
same,TGI,[33],7.61 µM
same,GI50,[34],3.44 µM
same,TGI,[34],> 100 µM
same,GI50,[35],0.528 µM
same,TGI,[35],4.98 µM
same,GI50,[57],2.76 µM
same,TGI,[57],8.28 µM
same,GI50,[36],1.58 µM
same,TGI,[36],4 µM
same,GI50,[37],0.417 µM
same,TGI,[37],> 100 µM
same,GI50,[38],0.817 µM
same,TGI,[38],> 100 µM
same,GI50,[39],1.41 µM
same,TGI,[39],> 100 µM
same,GI50,[58],2.26 µM
same,TGI,[58],6.33 µM
same,GI50,[40],2.51 µM
same,TGI,[40],7.63 µM
same,GI50,[41],0.426 µM
same,TGI,[41],14.6 µM
same,GI50,[42],1.97 µM
same,TGI,[42],13.4 µM
same,GI50,[43],1.99 µM
same,TGI,[43],37.6 µM
same,GI50,[44],0.384 µM
same,TGI,[44],12.1 µM
same,GI50,[45],3.18 µM
same,TGI,[45],> 100 µM
same,GI50,[46],0.339 µM
same,TGI,[46],13.4 µM
same,GI50,[47],0.538 µM
same,TGI,[47],> 100 µM
same,GI50,[48],3.01 µM
same,TGI,[48],> 100 µM
same,GI50,[49],1.7 µM
same,TGI,[49],3.72 µM
same,GI50,[50],3.59 µM
same,TGI,[50],54.9 µM
same,GI50,[51],0.278 µM
same,GI50,[52],2.96 µM
same,TGI,[52],15.2 µM
same,GI50,[53],2.51 µM
same,TGI,[53],33.5 µM
